Measurements as given in patent publication US20240391862A1, “(1,4,5-TRISUBSTITUTED-1H-PYRAZOL-3-YL)OXY-2-ALKOXY ALKYL ACIDS AND THEIR DERIVATIVES, THEIR SALTS AND THEIR USE AS HERBICIDAL AGENTS” (Bayer AKtiengesellschaft, priority 2021, published 2024).

Experiments:
Experiment in all cases: Post-emergence herbicidal effect, greenhouse pot test
ABUTH = format: in vivo, Abutilon theophrasti; details: visual rating about 3 weeks after treatment
Outline: (§1)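 Sandy loam pots, greenhouse. One-leaf stage (2–3 wk after sowing) foliar spray; WP/EC in water + 0.5% additive, 600 l/ha; 20–320 g/ha. Visual score ~3 wk, 0–100% vs untreated.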

ALOMY = format: in vivo, Alopecurus myosuroides
Outline: as §1

AMARE = format: in vivo, Amaranthus retroflexus; details: Amaranthus retroflexus, 504 h, 320 g/ha, visual rating about 3 weeks after treatment, read-out: Post-emergence effect against AMARE
Text: (§2) • ALOMY: Alopecurus myosuroides SETVI: Setaria viridis • AVEFA: Avena fatua POLCO: Fallopia convolvulus • AMARE: Amaranthus retroflexus ECHCG: Echinochloa crus-galli • LOLRJ: Lolium rigidum STEME: Stellaria media • VERPE: Veronica persica MATIN: Tripleurospermum inodorum • DIGSA: Digitaria sanguinalis ABUTH: Abutylon threophrasti • TRZAS: Triticum aestivum VIOTR: Viola tricolor • BRSNW: Brassica napus ZEAMX: Zea mays • PHBPU: Ipomoea purpurea GLXMA: Glycine max • ORYSA: Oryza sativa HORMU: Hordeum murinum
(§3) Seeds of monocotyledonous and dicotyledonous weeds and crop plants are placed in sandy loam in plastic or organic planting pots, covered with soil and cultivated in a greenhouse under controlled growth conditions. 2 to 3 weeks after sowing, the trial plants are treated at the one-leaf stage. The compounds of the invention, formulated in the form of wettable powders (WP) or as emulsion concentrates (EC), are then sprayed onto the green parts of the plants as aqueous suspension or emulsion with addition of 0.5% additive at a water application rate of 600 l/ha (converted). After the test plants have been kept in the greenhouse under optimum growth conditions for about 3 weeks, the activity of the preparations is rated visually in comparison to untreated controls. For example, 100% activity=the plants have died, 0% activity=like control plants.
(§4) Tables 20a to 38c below show the effects/crop compatibilities of selected compounds of the general formula (I) on various harmful plants at an application rate corresponding to 20 to 320 g/ha, which were obtained by the trial procedure specified above.

AVEFA = format: in vivo, Avena fatua; details: visual rating about 3 weeks after treatment
Outline: as §1

ECHCG = format: in vivo, Echinochloa crus-galli; details: for Post-emergence effect against ECHCG: 20 g/ha, visual rating about 3 weeks after treatment
Outline: as §1

LOLRI = format: in vivo, Lolium rigidum
Text: as §2, §3, §4

MATIN = format: in vivo, Tripleurospermum inodorum
Outline: as §1

PHBPU = format: in vivo, Ipomoea purpurea
Outline: as §1

POLCO = format: in vivo, Fallopia convolvulus
Outline: as §1

SETVI = format: in vivo, Setaria viridis
Outline: as §1

VERPE = format: in vivo, Veronica persica
Outline: as §1

VIOTR = format: in vivo, Viola tricolor; details: for pest or weed control at 20 g/ha: Viola tricolor, 504 h, read-out: Post-emergence effect against VIOTR in %
Outline: as §1

KCHSC = format: in vivo; details: 320 g/ha
Outline: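 Greenhouse plants in sandy loam, sprayed post-emergence at the one-leaf stage (2–3 weeks after sowing) with WP or EC formulations in water plus 0.5% additive at 600 l/ha. Rates 20 to 320 g/ha. Activity rated visually after about 3 weeks against untreated controls (0% like control, 100% dead).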

DIGSA = format: in vivo, Digitaria sanguinalis; details: 320 g/ha, visual rating about 3 weeks after treatment
Outline: as §1

[1] = 320 g/ha, visual rating about 3 weeks after treatment

COC(Oc1nn(-c2cc(F)ccc2F)c(-c2cncc(F)c2)c1C1CC1)C(=O)O (stereo not shown) [Example I-110]
Post-emergence effect against ABUTH (ABUTH; 20 g/ha): 80% | Post-emergence effect against ABUTH (ABUTH; 80 g/ha): 90% | Post-emergence effect against ABUTH (ABUTH; 320 g/ha): 90% | Post-emergence effect against ALOMY (ALOMY; [1]): 100% | pest or weed control at 80 g/ha (ALOMY; Alopecurus myosuroides, 504 h, 80 g/ha, visual rating about 3 weeks after treatment, read-out: Post-emergence effect against ALOMY): 80% | pest or weed control at 320 g/ha (AMARE): 80% | Post-emergence effect against AVEFA (AVEFA; 80 g/ha): 90% | Post-emergence effect against AVEFA (AVEFA; 320 g/ha): 90% | Post-emergence effect against ECHCG (ECHCG): 90% | Post-emergence effect against ECHCG in % (ECHCG; 80 g/ha): 90% | Post-emergence effect against ECHCG in % (ECHCG; 320 g/ha): 90% | Post-emergence effect against LOLRI in % (LOLRI; 320 g/ha): 90% | Post-emergence effect against MATIN in % (MATIN; 320 g/ha): 80% | pest or weed control at 80 g/ha (MATIN; Tripleurospermum inodorum, 504 h, 80 g/ha, read-out: Post-emergence effect against MATIN in %): 80% | Post-emergence effect against PHBPU in % (PHBPU; 80 g/ha): 90% | Post-emergence effect against PHBPU in % (PHBPU; 320 g/ha): 90% | pest or weed control at 20 g/ha (PHBPU; Ipomoea purpurea, 504 h, 20 g/ha, read-out: Post-emergence effect against PHBPU in %): 90% | Post-emergence effect against POLCO in % (POLCO; 80 g/ha): 80% | Post-emergence effect against POLCO in % (POLCO; 320 g/ha): 90% | pest or weed control at 20 g/ha (POLCO; Fallopia convolvulus, 504 h, 20 g/ha, read-out: Post-emergence effect against POLCO in %): 80% | Post-emergence effect against SETVI in % (SETVI; 320 g/ha): 80% | pest or weed control at 80 g/ha (SETVI; Setaria viridis, 504 h, 80 g/ha, read-out: Post-emergence effect against SETVI in %): 80% | Post-emergence effect against VERPE in % (VERPE; 20 g/ha): 80% | Post-emergence effect against VERPE in % (VERPE; 80 g/ha): 80% | Post-emergence effect against VERPE in % (VERPE; 320 g/ha): 90% | Post-emergence effect against VIOTR in % (VIOTR; 80 g/ha): 80% | Post-emergence effect against VIOTR in % (VIOTR; 320 g/ha): 80% | pest or weed control at 20 g/ha (VIOTR): 80% | Post-emergence effect against KCHSC in % (KCHSC): 80%

COC(=O)C(OC)Oc1nn(-c2cc(F)ccc2F)c(-c2cncc(F)c2)c1C1CC1 (stereo not shown) [Example I-112]
Post-emergence effect against ABUTH (ABUTH; 80 g/ha): 80% | Post-emergence effect against ABUTH (ABUTH; 320 g/ha): 80% | pest or weed control at 20 g/ha (ABUTH; Abutilon theophrasti, 504 h, 20 g/ha, read-out: Post-emergence effect against ABUTH): 80% | Post-emergence effect at 20 g/ha against ALOMY in % (ALOMY; 20 g/ha, one-leaf stage, rated visually after about 3 weeks vs untreated controls): 80% | Post-emergence effect against ALOMY (ALOMY; 80 g/ha, visual rating about 3 weeks after treatment): 90% | Post-emergence effect against ALOMY (ALOMY; [1]): 90% | Post-emergence effect against AVEFA (AVEFA; 80 g/ha): 90% | Post-emergence effect against AVEFA (AVEFA; 320 g/ha): 90% | pest or weed control at 20 g/ha (AVEFA; Avena fatua, 504 h, 20 g/ha, read-out: Post-emergence effect against AVEFA): 90% | Post-emergence effect against DIGSA (DIGSA): 80% | Post-emergence effect against ECHCG (ECHCG): 90% | Post-emergence effect against ECHCG in % (ECHCG; 80 g/ha): 90% | Post-emergence effect against ECHCG in % (ECHCG; 320 g/ha): 90% | Post-emergence effect against LOLRI in % (LOLRI; 80 g/ha): 90% | Post-emergence effect against LOLRI in % (LOLRI; 320 g/ha): 90% | Post-emergence effect against MATIN in % (MATIN; 20 g/ha): 80% | Post-emergence effect against MATIN in % (MATIN; 80 g/ha): 80% | Post-emergence effect against MATIN in % (MATIN; 320 g/ha): 80% | Post-emergence effect against PHBPU in % (PHBPU; 20 g/ha): 90% | Post-emergence effect against PHBPU in % (PHBPU; 80 g/ha): 90% | Post-emergence effect against PHBPU in % (PHBPU; 320 g/ha): 90% | Post-emergence effect against POLCO in % (POLCO; 80 g/ha): 80% | Post-emergence effect against POLCO in % (POLCO; 320 g/ha): 80% | Post-emergence effect against SETVI in % (SETVI; 80 g/ha): 80% | Post-emergence effect against SETVI in % (SETVI; 320 g/ha): 80% | Post-emergence effect against VERPE in % (VERPE; 20 g/ha): 80% | Post-emergence effect against VERPE in % (VERPE; 80 g/ha): 80% | Post-emergence effect against VERPE in % (VERPE; 320 g/ha): 80% | Post-emergence effect against VIOTR in % (VIOTR; 80 g/ha): 80% | Post-emergence effect against VIOTR in % (VIOTR; 320 g/ha): 80% | pest or weed control at 20 g/ha (VIOTR): 80% | pest or weed control at 320 g/ha (KCHSC; 504 h, read-out: Post-emergence effect against KCHSC in %): 80%
